Patent US20190203240A1, “METHODS FOR THE PRODUCTION OF RHAMNOSYLATED FLAVONOIDS” (Universitaet Hamburg, priority 2016, published 2019)

How the values were obtained:
Type in all cases: cell-based
STAT3 = STAT3 activity in HeLa-STAT3-luc cells stimulated with IFN-γ (luciferase); conditions: +IFNγ 25 U/ml
Procedure: HeLa-STAT3-luc cells were stably transfected with the plasmid 4×M67 pTATA TK-Luc. Cells (20×10^3 cells/ml) were seeded 96-well plate the day before the assay. Then the cells were treated with the test substances for […] and then stimulated with IFN-γ 25 IU/ml. After 6 h, the cells were washed twice with PBS and lysed in […] lysis buffer containing 25 mM Tris-phosphate (pH 7.8), 8 mM MgCl2, 1 mM DTT, 1% Triton X-100, and 7% glycerol during […] at RT in a horizontal shaker. Luciferase activity was measured using GloMax 96 microplate luminometer (Promega) following the instructions of the luciferase assay kit (Promega, Madison, Wis., USA). […] The experiments for each concentration of the test items were done in triplicate wells.

HaCaT cells = test: Glucose uptake (2-NBDG) in HaCaT keratinocytes; conditions: +2NBDG 50 μM, 24 h
Procedure: HaCaT cells (5×10^4) were seeded in 96-well black plates and incubated for 24 h. Then, medium was removed and the cells cultivated in OptiMEM, labeled with 50 μM 2-NBDG (2-[N-(7-nitrobenz-2-oxa-1,3-diazol-4-yl) amino]-2-deoxy-D-glucose and treated with the test substances or the positive control, Rosiglitazone, for 24 h. Medium was removed and the wells were carefully washed with PBS and incubated in PBS (100 μl/well). Finally the fluorescence was measured using the Incucyte FLR software, the data were analyzed by the total green object integrated intensity (GCU×μm2×Well) of the imaging system IncuCyte HD (Essen BioScience). The fluorescence of Rosiglitazone is taken as 100% of glucose uptake, and the glucose uptake was calculated as (% Glucose uptake)=100(T−B)/(R−B), where T (treated) is the fluorescence of test substance-treated cells, B (Basal) is the fluorescence of 2-NBDG cells and […] is the fluorescence of cells treated with Rosiglitazone.

NF-κB = NF-κB activity in NIH3T3-KBF-Luc cells stimulated with TNFα (luciferase); conditions: +30 ng/ml TNFα
Procedure: NIH3T3-KBF-Luc cells were stably transfected with the KBF-Luc plasmid (Sancho (2003) Mol Pharmacol 63:429-438), which contains three copies of NF-κB binding site (from major histocompatibility complex promoter), fused to a minimal simian virus 40 promoter driving the luciferase gene. Cells (1×10^4 for NIH3T3-KBF-Luc) were seeded the day before the assay on 96-well plate. Then the cells were treated with the test substances for 15 min and then stimulated with 30 ng/ml of TNFα. After 6 h, the cells were washed twice with PBS and lysed in 50 μl lysis buffer containing 25 mM Tris-phosphate (pH 7.8), 8 mM MgCl2, 1 mM DTT, 1% Triton X-100, and 7% glycerol during 15 min at RT in a horizontal shaker. Luciferase activity was measured using a GloMax 96 microplate luminometer (Promega) following the instructions of the luciferase assay kit (Promega, Madison, Wis., USA). […] The experiments for each concentration of the test items were done in triplicate wells.

| Structure (SMILES) | % Activation (STAT3; IFNγ = 100%) (STAT3; 25 μM) | RLU 1 (STAT3; 25 μM) | RLU 2 (STAT3; 25 μM) | RLU 3 (STAT3; 25 μM) | RLU MEAN (STAT3; 25 μM) | RLU specific (STAT3; 25 μM) | RLU 1 (STAT3; 50 μM) | RLU 2 (STAT3; 50 μM) | RLU 3 (STAT3; 50 μM) | % Activation (NF-κB; TNFα = 100%) (NF-κB; 10 μM) | RLU 1 (NF-κB; 10 μM) | RLU 2 (NF-κB; 10 μM) | RLU 3 (NF-κB; 10 μM) | RLU MEAN (NF-κB; 10 μM) | RLU specific (NF-κB; 10 μM) | RLU 1 (NF-κB; 25 μM) | RLU 2 (NF-κB; 25 μM) | RLU 3 (NF-κB; 25 μM) | RLU MEAN (NF-κB; 25 μM) | RLU specific (NF-κB; 25 μM) | other results |
| --- | --- | --- | --- | --- | --- | --- | --- | --- | --- | --- | --- | --- | --- | --- | --- | --- | --- | --- | --- | --- | --- |
| COc1cc(C2Oc3cc([C@H]4Oc5cc(O)cc(O)c5C(=O)[C@@H]4O)ccc3OC2CO)ccc1O (stereo partly drawn) [Silibinin] | 121.32% | 12389 RLU | 11170 RLU | 11210 RLU | 11590 RLU | 9755 RLU | 12157 RLU | 11885 RLU | 10540 RLU |  |  |  |  |  |  |  |  |  |  |  | % Activation (STAT3; IFNγ = 100%) (STAT3; 50 μM): 120.55%; RLU MEAN (STAT3; 50 μM): 11527 RLU; RLU specific (STAT3; 50 μM): 9692 RLU |
| COc1ccc(-c2coc3cc(O)cc(O[C@@H]4O[C@@H](C)[C@H](O)[C@@H](O)[C@H]4O)c3c2=O)cc1 [BR2, Biochanin A 5-O-α-L-rhamnoside] | 109.76% | 11157 RLU | 10163 RLU | 10660 RLU | 10660 RLU | 8825 RLU | 7983 RLU | 9023 RLU | 11110 RLU | 138.3% | 205410 RLU | 202640 RLU | 202940 RLU | 203663 RLU | 180300 RLU | 237390 RLU | 235850 RLU | 235350 RLU | 236197 RLU | 212833 RLU | % Glucose uptake (Rosiglitazone = 100%) (HaCaT cells; 25 μM): 77.5%; Mean (fluorescence) (HaCaT cells; 25 μM): 1027608; Measure 1 (fluorescence) (HaCaT cells; 25 μM): 998132; Measure 2 (fluorescence) (HaCaT cells; 25 μM): 1149619; Measure 3 (fluorescence) (HaCaT cells; 25 μM): 935073; RFU specific (HaCaT cells; 25 μM): 994522 RFU; % Glucose uptake (Rosiglitazone = 100%) (HaCaT cells; 50 μM): 129.0%; Mean (fluorescence) (HaCaT cells; 50 μM): 1688513; Measure 1 (fluorescence) (HaCaT cells; 50 μM): 1657600; Measure 2 (fluorescence) (HaCaT cells; 50 μM): 1788604; Measure 3 (fluorescence) (HaCaT cells; 50 μM): 1619334; RFU specific (HaCaT cells; 50 μM): 1655427 RFU; % Activation (NF-κB; TNFα = 100%) (NF-κB; 25 μM): 163.2%; % Activation (STAT3; IFNγ = 100%) (STAT3; 50 μM): 93.74%; RLU MEAN (STAT3; 50 μM): 9372 RLU; RLU specific (STAT3; 50 μM): 7537 RLU |
| COc1ccc(-c2cc(=O)c3c(O)cc(O)cc3o2)cc1O [Diosmetin] | 111.00% | 16337 RLU | 14303 RLU | 17066 RLU | 15902 RLU | 13895 RLU | 9189 RLU | 7751 RLU | 7857 RLU | 294.7% | 398660 RLU | 411390 RLU | 412940 RLU | 407663 RLU | 384300 RLU | 448530 RLU | 452660 RLU | 451610 RLU | 450933 RLU | 427570 RLU | % Activation (NF-κB; TNFα = 100%) (NF-κB; 25 μM): 327.9%; RLU MEAN (STAT3; 50 μM): 8266 RLU; RLU specific (STAT3; 50 μM): 6258 RLU; activity at 50 µM (STAT3; 6 h, 50 μM, read-out: % Activation (STAT3; IFNγ = 100%)): 50% |
| COc1ccc(-c2coc3cc(O[C@@H]4O[C@@H](C)[C@H](O)[C@@H](O)[C@H]4O)cc(O[C@@H]4O[C@@H](C)[C@H](O)[C@@H](O)[C@H]4O)c3c2=O)cc1 [BR1, Biochanin A-5,7-di-O-α-L-rhamnoside] | 110.41% | 8162 RLU | 12819 RLU | 11157 RLU | 10713 RLU | 8878 RLU | 12336 RLU | 11620 RLU | 12104 RLU | 170.3% | 259120 RLU | 247590 RLU | 229500 RLU | 245403 RLU | 222040 RLU | 211660 RLU | 208010 RLU | 203720 RLU | 207797 RLU | 184433 RLU | % Glucose uptake (Rosiglitazone = 100%) (HaCaT cells; 25 μM): 44.0%; Mean (fluorescence) (HaCaT cells; 25 μM): 597246; Measure 1 (fluorescence) (HaCaT cells; 25 μM): 730362; Measure 2 (fluorescence) (HaCaT cells; 25 μM): 661244; Measure 3 (fluorescence) (HaCaT cells; 25 μM): 400131; RFU specific (HaCaT cells; 25 μM): 564160 RFU; % Glucose uptake (Rosiglitazone = 100%) (HaCaT cells; 50 μM): 56.4%; Mean (fluorescence) (HaCaT cells; 50 μM): 756509; Measure 1 (fluorescence) (HaCaT cells; 50 μM): 899548; Measure 2 (fluorescence) (HaCaT cells; 50 μM): 626443; Measure 3 (fluorescence) (HaCaT cells; 50 μM): 743535; RFU specific (HaCaT cells; 50 μM): 723423 RFU; % Activation (NF-κB; TNFα = 100%) (NF-κB; 25 μM): 141.4%; % Activation (STAT3; IFNγ = 100%) (STAT3; 50 μM): 126.67%; RLU MEAN (STAT3; 50 μM): 12020 RLU; RLU specific (STAT3; 50 μM): 10185 RLU |
| CC1O[C@@H](Oc2cc(O)cc3oc(-c4ccccc4)cc(=O)c23)C(O)C(O)[C@H]1O (stereo partly drawn) [CR2, Chrysin-5-O-α-L-rhamnoside] |  |  |  |  |  |  |  |  |  | 101.7% | 156600 RLU | 160140 RLU | 151070 RLU | 155937 RLU | 132573 RLU | 170390 RLU | 179220 RLU | 163490 RLU | 171033 RLU | 147670 RLU | % Glucose uptake (Rosiglitazone = 100%) (HaCaT cells; 25 μM): 47.2%; Mean (fluorescence) (HaCaT cells; 25 μM): 416681; Measure 1 (fluorescence) (HaCaT cells; 25 μM): 427937; Measure 2 (fluorescence) (HaCaT cells; 25 μM): 431593; Measure 3 (fluorescence) (HaCaT cells; 25 μM): 390512; RFU specific (HaCaT cells; 25 μM): 410367 RFU; % Glucose uptake (Rosiglitazone = 100%) (HaCaT cells; 50 μM): 106.5%; Mean (fluorescence) (HaCaT cells; 50 μM): 931673; Measure 1 (fluorescence) (HaCaT cells; 50 μM): 771478; Measure 2 (fluorescence) (HaCaT cells; 50 μM): 1100390; Measure 3 (fluorescence) (HaCaT cells; 50 μM): 923151; RFU specific (HaCaT cells; 50 μM): 925359 RFU; activity at 25 µM (NF-κB; 6 h, 25 μM, read-out: % Activation (NF-κB; TNFα = 100%)): 113% |
| CC1O[C@@H](Oc2cc(O[C@@H]3OC(C)[C@H](O)C(O)C3O)c3c(=O)cc(-c4ccccc4)oc3c2)C(O)C(O)[C@H]1O (stereo partly drawn) [CR1, Chrysin-di-5,7-O-α-L-rhamnoside] |  |  |  |  |  |  |  |  |  | 109.9% | 157870 RLU | 169000 RLU | 173010 RLU | 166627 RLU | 143263 RLU | 175140 RLU | 183630 RLU | 183960 RLU | 180910 RLU | 157547 RLU | % Glucose uptake (Rosiglitazone = 100%) (HaCaT cells; 25 μM): 48.3%; Mean (fluorescence) (HaCaT cells; 25 μM): 426161; Measure 1 (fluorescence) (HaCaT cells; 25 μM): 291406; Measure 2 (fluorescence) (HaCaT cells; 25 μM): 358114; Measure 3 (fluorescence) (HaCaT cells; 25 μM): 628963; RFU specific (HaCaT cells; 25 μM): 419847 RFU; % Glucose uptake (Rosiglitazone = 100%) (HaCaT cells; 50 μM): 52.6%; Mean (fluorescence) (HaCaT cells; 50 μM): 463245; Measure 1 (fluorescence) (HaCaT cells; 50 μM): 619992; Measure 2 (fluorescence) (HaCaT cells; 50 μM): 595330; Measure 3 (fluorescence) (HaCaT cells; 50 μM): 174412; RFU specific (HaCaT cells; 50 μM): 456931 RFU; % Activation (NF-κB; TNFα = 100%) (NF-κB; 25 μM): 120.8% |
| O=c1cc(-c2ccccc2)oc2cc(O)cc(O)c12 [Chrysin] | 164.78% | 28031 RLU | 22367 RLU | 17504 RLU | 22634 RLU | 20627 RLU | 27912 RLU | 3531 RLU | 16304 RLU | 313.0% | 301630 RLU | 274240 RLU | 303950 RLU | 293273 RLU | 256010 RLU | 273410 RLU | 272580 RLU | 285980 RLU | 277323 RLU | 240060 RLU | % Activation (NF-κB; TNFα = 100%) (NF-κB; 25 μM): 293.5%; % Activation (STAT3; IFNγ = 100%) (STAT3; 50 μM): 111.11%; RLU MEAN (STAT3; 50 μM): 15916 RLU; RLU specific (STAT3; 50 μM): 13908 RLU |
